Experimental data reported in patent US20240368109A1, “ALLOSTERIC MODULATORS OF NICOTINIC ACETYLCHOLINE RECEPTORS” (MERCK SHARP & DOHME LLC, priority 2021, published 2024).

Target: human α7 nAChR (Homo sapiens (Human), UniProt P36544)
Test: Automated patch-clamp electrophysiology functional assay (Assay A)
Type: cell-based
Conditions: IonFlux HT whole-cell population patch, HEK cells expressing human α7/RIC-3, 40 μM acetylcholine
In short: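 Whole-cell population patch clamp on HEK cells stably co-expressing human α7 and RIC-3, held at −60 mV, room temperature. Compounds tested at three ascending concentrations per recording with or without 40 μM acetylcholine; currents normalized to the 40 μM acetylcholine-evoked reference response to give agonist and potentiation EC50.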

human α7 nAChR, sequence (P36544 23-502): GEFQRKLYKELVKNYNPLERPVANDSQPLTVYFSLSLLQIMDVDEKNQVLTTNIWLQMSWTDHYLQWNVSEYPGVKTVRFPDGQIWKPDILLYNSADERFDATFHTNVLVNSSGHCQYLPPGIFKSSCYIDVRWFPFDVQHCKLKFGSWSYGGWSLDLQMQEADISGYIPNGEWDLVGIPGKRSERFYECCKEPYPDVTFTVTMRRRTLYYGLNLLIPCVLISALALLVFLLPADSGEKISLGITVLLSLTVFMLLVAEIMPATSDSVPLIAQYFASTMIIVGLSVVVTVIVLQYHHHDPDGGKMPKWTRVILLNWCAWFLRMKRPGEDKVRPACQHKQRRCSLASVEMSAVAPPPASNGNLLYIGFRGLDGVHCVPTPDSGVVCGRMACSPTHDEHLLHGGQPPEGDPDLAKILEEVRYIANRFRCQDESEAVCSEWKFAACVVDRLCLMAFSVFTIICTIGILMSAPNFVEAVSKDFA

SMILES | EC50 (electrophysiology EC50 values) [nM] | EC50 (potency class) [nM]
COc1ccc(-c2noc(CNC(=O)C3C4Oc5ccc(F)cc5C43)n2)cn1 (stereo not drawn) [Example C51, exo-5-fluoro-N-{[3-(6-methoxypyridin-3-yl)-1,2,4-oxadiazol-5-yl]methyl}-1a,6b-dihydro-1H-cyclopropa[b][1]benzofuran-1-carboxamide] | 1000 | 500 to 5000
O=C(NCc1cc(-c2ccc(Cl)cc2)no1)C1C2Oc3ccc(F)cc3C21 (stereo not drawn) [Example C52, exo-N-{[3-(4-chlorophenyl)-1,2-oxazol-5-yl]methyl}-5-fluoro-1a,6b-dihydro-1H-cyclopropa[b][1]benzofuran-1-carboxamide] | – | 500 to 5000
O=C(NCc1nc(-c2ccccc2)no1)C1C2Oc3ccc(F)cc3C21 (stereo not drawn) [Example C53, exo-5-fluoro-N-[(3-phenyl-1,2,4-oxadiazol-5-yl)methyl]-1a,6b-dihydro-1H-cyclopropa[b][1]benzofuran-1-carboxamide] | 1500 | 500 to 5000
